{"source": "paper PMC2791885", "about": "(Journal of nuclear medicine : official publication, Society …, 2009)", "key": {"PDE4": {"tested_on": "PDE4", "test": "PET compartmental modeling of brain and plasma data"}, "[1]": {"conditions": "ultrafiltration, 5 control animals; cited from earlier work"}, "[2]": {"conditions": "transient equilibrium, range over scans"}}, "data": [{"compound": "COc1ccc([C@@H]2CNC(=O)C2)cc1OC1CCCC1", "note": "[(R)-rolipram]", "values": [{"measurement": "concentration of free radioligand calculated with Equation 2", "setting": "PDE4; baseline scans", "result": "0.08 to 0.17", "unit": "nM"}, {"measurement": "concentration of free radioligand calculated with Equation 2", "setting": "PDE4; partially blocked scans", "result": "0.29 to 3.00", "unit": "nM"}, {"measurement": "calculated concentration of free ligand in brain", "setting": "PDE4; [2]", "result": "0.07 to 5.68", "unit": "nM"}, {"measurement": "calculated concentration of specifically bound ligand in brain", "setting": "PDE4; [2]", "result": "3.63 to 88.3", "unit": "nM"}, {"measurement": "plasma-free fraction (fP)", "setting": "[1]", "result": "30.5% ± 3.1"}]}]}
